# Results reported in the NIST ThermoML archive (doi:10.1021/je4009238).
# Numbers after ± are expanded uncertainties.
# Experiments:
# [1] = refractive index (Na D-line) (dimensionless); xn = mol fraction of the nth substance listed; conditions: 101 kPa, Liquid
# [2] = xn = mol fraction of the nth substance listed; conditions: 288.15 K, 101 kPa, Liquid
smiles,measurement,setting,value
CCn1cc[n+](C)c1.[Cl-] [1-ethyl-3-methylimidazolium chloride] + CN(C)C=O,refractive index,"[1]; 288.15 K, x1 = 0.0102",1.43565 ± 0.00063
same,refractive index,"[1]; 288.15 K, x1 = 0.0203",1.43836 ± 0.00063
same,refractive index,"[1]; 288.15 K, x1 = 0.031",1.44091 ± 0.00063
same,refractive index,"[1]; 288.15 K, x1 = 0.0417",1.44354 ± 0.00063
same,refractive index,"[1]; 288.15 K, x1 = 0.0524",1.44588 ± 0.00063
same,refractive index,"[1]; 288.15 K, x1 = 0.0635",1.44822 ± 0.00063
same,refractive index,"[1]; 288.15 K, x1 = 0.0752",1.45067 ± 0.00063
same,refractive index,"[1]; 288.15 K, x1 = 0.0867",1.45308 ± 0.00063
same,refractive index,"[1]; 288.15 K, x1 = 0.0988",1.45542 ± 0.00063
same,refractive index,"[1]; 288.15 K, x1 = 0.1107",1.45784 ± 0.00063
same,refractive index,"[1]; 288.15 K, x1 = 0.1232",1.46021 ± 0.00063
same,refractive index,"[1]; 288.15 K, x1 = 0.1361",1.46253 ± 0.00063
same,refractive index,"[1]; 288.15 K, x1 = 0.1489",1.46477 ± 0.00063
same,refractive index,"[1]; 288.15 K, x1 = 0.1626",1.46721 ± 0.00063
same,refractive index,"[1]; 288.15 K, x1 = 0.1759",1.46942 ± 0.00063
same,refractive index,"[1]; 298.15 K, x1 = 0.0102",1.43106 ± 0.00063
same,refractive index,"[1]; 298.15 K, x1 = 0.0203",1.43346 ± 0.00063
same,refractive index,"[1]; 298.15 K, x1 = 0.031",1.4364 ± 0.00063
same,refractive index,"[1]; 298.15 K, x1 = 0.0417",1.43872 ± 0.00063
same,refractive index,"[1]; 298.15 K, x1 = 0.0524",1.44144 ± 0.00063
same,refractive index,"[1]; 298.15 K, x1 = 0.0635",1.44361 ± 0.00063
same,refractive index,"[1]; 298.15 K, x1 = 0.0752",1.44626 ± 0.00063
same,refractive index,"[1]; 298.15 K, x1 = 0.0867",1.44855 ± 0.00063
same,refractive index,"[1]; 298.15 K, x1 = 0.0988",1.4511 ± 0.00063
same,refractive index,"[1]; 298.15 K, x1 = 0.1107",1.45354 ± 0.00063
same,refractive index,"[1]; 298.15 K, x1 = 0.1232",1.45597 ± 0.00063
same,refractive index,"[1]; 298.15 K, x1 = 0.1361",1.45827 ± 0.00063
same,refractive index,"[1]; 298.15 K, x1 = 0.1489",1.46065 ± 0.00063
same,refractive index,"[1]; 298.15 K, x1 = 0.1626",1.46302 ± 0.00063
same,refractive index,"[1]; 298.15 K, x1 = 0.1759",1.46536 ± 0.00063
same,refractive index,"[1]; 308.15 K, x1 = 0.0102",1.42654 ± 0.00063
same,refractive index,"[1]; 308.15 K, x1 = 0.0203",1.42888 ± 0.00063
same,refractive index,"[1]; 308.15 K, x1 = 0.031",1.43189 ± 0.00063
same,refractive index,"[1]; 308.15 K, x1 = 0.0417",1.43416 ± 0.00063
same,refractive index,"[1]; 308.15 K, x1 = 0.0524",1.43691 ± 0.00063
same,refractive index,"[1]; 308.15 K, x1 = 0.0635",1.43896 ± 0.00063
same,refractive index,"[1]; 308.15 K, x1 = 0.0752",1.4419 ± 0.00063
same,refractive index,"[1]; 308.15 K, x1 = 0.0867",1.44372 ± 0.00063
same,refractive index,"[1]; 308.15 K, x1 = 0.0988",1.44678 ± 0.00063
same,refractive index,"[1]; 308.15 K, x1 = 0.1107",1.44907 ± 0.00063
same,refractive index,"[1]; 308.15 K, x1 = 0.1232",1.45167 ± 0.00063
same,refractive index,"[1]; 308.15 K, x1 = 0.1361",1.45406 ± 0.00063
same,refractive index,"[1]; 308.15 K, x1 = 0.1489",1.45621 ± 0.00063
same,refractive index,"[1]; 308.15 K, x1 = 0.1626",1.45888 ± 0.00063
same,refractive index,"[1]; 308.15 K, x1 = 0.1759",1.46102 ± 0.00063
same,refractive index,"[1]; 318.15 K, x1 = 0.0102",1.42218 ± 0.00063
same,refractive index,"[1]; 318.15 K, x1 = 0.0203",1.4245 ± 0.00063
same,refractive index,"[1]; 318.15 K, x1 = 0.031",1.4275 ± 0.00063
same,refractive index,"[1]; 318.15 K, x1 = 0.0417",1.42977 ± 0.00063
same,refractive index,"[1]; 318.15 K, x1 = 0.0524",1.43252 ± 0.00063
same,refractive index,"[1]; 318.15 K, x1 = 0.0635",1.43477 ± 0.00063
same,refractive index,"[1]; 318.15 K, x1 = 0.0752",1.43765 ± 0.00063
same,refractive index,"[1]; 318.15 K, x1 = 0.0867",1.43964 ± 0.00063
same,refractive index,"[1]; 318.15 K, x1 = 0.0988",1.44253 ± 0.00063
same,refractive index,"[1]; 318.15 K, x1 = 0.1107",1.445 ± 0.00063
same,refractive index,"[1]; 318.15 K, x1 = 0.1232",1.44746 ± 0.00063
same,refractive index,"[1]; 318.15 K, x1 = 0.1361",1.44986 ± 0.00063
same,refractive index,"[1]; 318.15 K, x1 = 0.1489",1.45192 ± 0.00063
same,refractive index,"[1]; 318.15 K, x1 = 0.1626",1.45477 ± 0.00063
same,refractive index,"[1]; 318.15 K, x1 = 0.1759",1.45679 ± 0.00063
same,mass density,[2]; x1 = 0.0102,958.86 ± 0.81 kg/m3
same,viscosity,[2]; x1 = 0.0102,1.023 ± 0.11 mPa·s
same,mass density,[2]; x1 = 0.0203,963.47 ± 0.78 kg/m3
same,viscosity,[2]; x1 = 0.0203,1.156 ± 0.12 mPa·s
same,mass density,[2]; x1 = 0.031,968.07 ± 0.75 kg/m3
same,viscosity,[2]; x1 = 0.031,1.188 ± 0.12 mPa·s
same,mass density,[2]; x1 = 0.0417,972.24 ± 0.73 kg/m3
same,viscosity,[2]; x1 = 0.0417,1.327 ± 0.13 mPa·s
same,mass density,[2]; x1 = 0.0524,976.38 ± 0.7 kg/m3
same,viscosity,[2]; x1 = 0.0524,1.399 ± 0.13 mPa·s
same,mass density,[2]; x1 = 0.0635,980.82 ± 0.68 kg/m3
same,viscosity,[2]; x1 = 0.0635,1.535 ± 0.14 mPa·s
same,mass density,[2]; x1 = 0.0752,984.98 ± 0.65 kg/m3
same,viscosity,[2]; x1 = 0.0752,1.765 ± 0.15 mPa·s
same,mass density,[2]; x1 = 0.0867,989.33 ± 0.63 kg/m3
same,viscosity,[2]; x1 = 0.0867,1.867 ± 0.16 mPa·s
same,mass density,[2]; x1 = 0.0988,993.32 ± 0.6 kg/m3
same,viscosity,[2]; x1 = 0.0988,2.123 ± 0.17 mPa·s
same,mass density,[2]; x1 = 0.1107,997.33 ± 0.58 kg/m3
same,viscosity,[2]; x1 = 0.1107,2.25 ± 0.18 mPa·s
same,mass density,[2]; x1 = 0.1232,1001.39 ± 0.57 kg/m3
same,viscosity,[2]; x1 = 0.1232,2.429 ± 0.19 mPa·s
same,mass density,[2]; x1 = 0.1361,1005.6 ± 0.6 kg/m3
same,viscosity,[2]; x1 = 0.1361,2.766 ± 0.21 mPa·s
same,mass density,[2]; x1 = 0.1489,1009.6 ± 0.63 kg/m3
same,viscosity,[2]; x1 = 0.1489,3.002 ± 0.23 mPa·s
same,mass density,[2]; x1 = 0.1626,1013.74 ± 0.65 kg/m3
same,viscosity,[2]; x1 = 0.1626,3.293 ± 0.24 mPa·s
same,mass density,[2]; x1 = 0.1759,1017.7 ± 0.68 kg/m3
same,viscosity,[2]; x1 = 0.1759,3.645 ± 0.27 mPa·s
